Data published in PubChem BioAssay (NCI).
Several values for one entry are separate records, joined by “and”; a condition that tells them apart may be missing. Identical values can stand only once.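 Values below derive from 48-hour exposures of cells grown in 96-well plates, with endpoints linearly interpolated between the two concentrations bracketing the appropriate inhibition level. Here, GI50 denotes the concentration required for 50% inhibition of growth. The concentration for full growth arrest is given as TGI.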

Columns and labels:
Experiment in all cases: NCI tumour cell line growth inhibition, 48 h
OVCAR-3 ovarian = test system: OVCAR-3 ovarian
MDA-MB-435 = test system: MDA-MB-435
EKVX NSCLC = test system: EKVX NSCLC
HOP-92 NSCLC = test system: HOP-92 NSCLC
KM12 colon = test system: KM12 colon
TK-10 renal = test system: TK-10 renal
786-0 renal = test system: 786-0 renal
ACHN renal = test system: ACHN renal
A498 renal = test system: A498 renal
HL-60(TB) leukemia = test system: HL-60(TB) leukemia

Structure (SMILES)	TGI (OVCAR-3 ovarian)	TGI (MDA-MB-435)	TGI (EKVX NSCLC)	TGI (HOP-92 NSCLC)	TGI (KM12 colon)	TGI (TK-10 renal)	TGI (786-0 renal)	TGI (ACHN renal)	TGI (A498 renal)	TGI (HL-60(TB) leukemia)	GI50 (OVCAR-3 ovarian)	GI50 (HL-60(TB) leukemia)	GI50 (MDA-MB-435)	GI50 (EKVX NSCLC)	GI50 (HOP-92 NSCLC)	GI50 (KM12 colon)	GI50 (TK-10 renal)	GI50 (ACHN renal)	GI50 (A498 renal)
CC(=O)Nc1c(C(=N)C#N)ncn1CCO	> 100 µM	> 100 µM	> 100 µM	> 100 µM	> 100 µM	> 100 µM	> 100 µM	> 100 µM	> 100 µM	–	–	–	–	–	–	–	–	–	–
CN1CCCOC(c2ccc(Cl)cc2)O1 (stereo not drawn)	> 100 µM	> 100 µM	> 100 µM	> 100 µM	> 100 µM	> 100 µM	> 100 µM	> 100 µM	> 100 µM	–	–	–	–	–	–	–	–	–	–
CCOC(=O)CCC1(CCC(=O)OCC)CCCCCCCCC(CCC(=O)OCC)(CCC(=O)OCC)C(=O)C1=O	> 100 µM	> 100 µM	> 100 µM	> 100 µM	> 100 µM	> 100 µM	> 100 µM	> 100 µM	> 100 µM	–	–	–	–	–	–	–	–	–	–
O=C1/C(=C\c2cccc(Oc3ccccc3)c2)S(=O)(=O)C(c2ccccc2)N1c1cccc(Cl)c1 (stereo not drawn)	> 100 µM	> 100 µM	> 100 µM	> 100 µM	> 100 µM	> 100 µM	> 100 µM	> 100 µM	> 100 µM	–	–	–	–	–	–	–	–	–	–
COc1ccc(/C(Cl)=C(\C#N)c2ccc(OC)c(OC)c2)cc1OC	> 100 µM	> 100 µM	94 µM	> 100 µM	–	> 100 µM	> 100 µM	> 100 µM	> 100 µM	> 100 µM	–	–	–	–	–	–	–	–	–
Cc1ccc2c(c1)CC1(Cc3cccc(C)c3C1=O)C2=O (stereo not drawn)	> 100 µM	> 10 µM	> 100 µM	> 100 µM	–	> 100 µM	> 100 µM	> 100 µM	> 100 µM	> 100 µM	–	–	–	–	–	–	–	–	–
O=C(N[C@@H](Cc1coc2ccccc12)B(O)O)[C@@H]1C[C@H]2CC[C@@H]1O2	> 100 µM	4.04 µM	> 100 µM	80.8 µM	57.9 µM	11.5 µM	–	> 100 µM	5.73 µM	> 100 µM	4.04 µM	3.05 µM	1.76 µM	22.7 µM	5.06 µM	11.4 µM	2.44 µM	1.93 µM	0.702 µM
CCOP(=O)(OCC)/C(C#N)=C/c1ccc(-c2cc(C(F)(F)F)cc(C(F)(F)F)c2)o1	21.6 µM	29 µM	35 µM	20.7 µM	–	35.5 µM	25.5 µM	50.2 µM	24.8 µM	14.3 µM	–	–	–	–	–	–	–	–	–
CCC1CC(O)c2c(O)c3c(c(O)c2C1O)C(=O)c1cccc(O)c1C3=O (stereo not drawn) (tested in a mixture with another compound)	0.0721 µM and 0.0312 µM	0.0713 µM and 0.0207 µM	0.0864 µM and 0.192 µM	–	0.147 µM and 0.0175 µM	–	0.758 µM and 1.22 µM	–	0.03 µM	0.0866 µM and 0.0744 µM	–	0.0177 µM	–	–	–	–	–	–	–
CC1CC(Nc2ccc(Br)cc2)N(C(=O)c2ccc(Br)cc2)O1 (stereo not drawn)	> 10 µM	> 10 µM	> 10 µM	–	–	> 10 µM	> 10 µM	> 10 µM	–	> 10 µM	–	–	–	–	–	–	–	–	–
Cc1ccc(C(=O)NCc2ccccc2)cc1N=NN(C)C	> 100 µM	> 100 µM	> 100 µM	> 100 µM	> 100 µM	> 100 µM	> 100 µM	> 100 µM	–	> 100 µM	–	–	–	–	–	–	–	–	–
COc1ccc2nc(-c3ccccc3)c(=O)[nH]c2c1	> 100 µM	> 100 µM	> 100 µM	> 100 µM	–	> 100 µM	> 100 µM	> 100 µM	> 100 µM	> 100 µM	–	–	–	–	–	–	–	–	–
CN1CCN(/C(N)=C(\C#N)C(=O)Nc2ccc(Cl)cc2)CC1	> 100 µM	> 100 µM	> 100 µM	> 100 µM	> 100 µM	–	> 100 µM	> 100 µM	> 100 µM	–	–	–	–	–	–	–	–	–	–
O=c1cc(CF)[nH]c(=S)[nH]1	> 100 µM	> 100 µM	> 100 µM	> 100 µM	> 100 µM	> 100 µM	> 100 µM	> 100 µM	> 100 µM	–	–	–	–	–	–	–	–	–	–
O=c1[nH]nc(Cc2ccc(Cl)cc2)n1/N=C/c1cccs1	> 100 µM	> 100 µM	> 100 µM	64.2 µM	> 100 µM	–	> 100 µM	> 100 µM	> 100 µM	> 100 µM	–	–	–	–	–	–	–	–	–
CN1CC=C(c2c(N)nc(N)[nH]c2=O)CC1	> 100 µM	> 100 µM	> 100 µM	> 100 µM	> 100 µM	–	> 100 µM	> 100 µM	> 100 µM	> 100 µM	–	–	–	–	–	–	–	–	–
O=c1[nH]c2nc3ccccc3c(=O)n2/c1=C/c1cccs1	> 100 µM	> 100 µM	> 100 µM	> 100 µM	> 100 µM	> 100 µM	> 100 µM	> 100 µM	–	> 100 µM	–	–	–	–	–	–	–	–	–
CC(NC(=O)Cc1ccccc1)NC(=O)C(C)C(=O)NCc1ccccc1 (stereo not drawn)	–	> 100 µM	> 100 µM	88.8 µM	> 100 µM	> 100 µM	> 100 µM	> 100 µM	–	> 100 µM	–	–	–	–	–	–	–	–	–
C(=Nc1ccc2c(c1)Cc1ccccc1-2)c1ccccn1	> 100 µM	> 100 µM	> 100 µM	> 100 µM	> 100 µM	> 100 µM	> 100 µM	> 100 µM	> 100 µM	–	–	–	–	–	–	–	–	–	–
O=C1OCC2OC(=O)c3cc(O)c(O)c(O)c3-c3c(O)c(O)c(O)c4c3C(=O)OC(C2OC(=O)c2cc(O)c(O)c(O)c2-c2c1cc(O)c(O)c2O)C1OC(=O)C2C4=C(O)C(=O)C23Oc2cc(O)c4c(c2[C@H]13)O[C@H](c1ccc(O)c(O)c1)[C@@H](O)C4 (stereo partly drawn)	83.4 µM	45 µM	42.7 µM	> 100 µM	> 100 µM	–	56.7 µM	56.6 µM	> 100 µM	51.8 µM	–	–	–	–	–	–	–	–	–
NCCCN(CCCN)CCc1cn(C(=O)c2ccccc2)cn1	7.75 µM	14.3 µM	23.3 µM	13.2 µM	22.2 µM	20.6 µM	25.6 µM	19.2 µM	–	10.8 µM	–	–	–	–	–	–	–	–	–
